Where only a bound is given, the exact number is not on record here.

The results in this text go back to patent US8710065B2, “Tricyclic inhibitors of kinases” (AbbVie Inc., priority 2011, dated 2014).

The target of the assay is T1, GST-tagged-Wee1 kinase (Homo sapiens, UniProt P30291).
T1 construct: purchased Carnabio (Carna Biosciences) 05-177
T1 sequence (P30291 whole entry): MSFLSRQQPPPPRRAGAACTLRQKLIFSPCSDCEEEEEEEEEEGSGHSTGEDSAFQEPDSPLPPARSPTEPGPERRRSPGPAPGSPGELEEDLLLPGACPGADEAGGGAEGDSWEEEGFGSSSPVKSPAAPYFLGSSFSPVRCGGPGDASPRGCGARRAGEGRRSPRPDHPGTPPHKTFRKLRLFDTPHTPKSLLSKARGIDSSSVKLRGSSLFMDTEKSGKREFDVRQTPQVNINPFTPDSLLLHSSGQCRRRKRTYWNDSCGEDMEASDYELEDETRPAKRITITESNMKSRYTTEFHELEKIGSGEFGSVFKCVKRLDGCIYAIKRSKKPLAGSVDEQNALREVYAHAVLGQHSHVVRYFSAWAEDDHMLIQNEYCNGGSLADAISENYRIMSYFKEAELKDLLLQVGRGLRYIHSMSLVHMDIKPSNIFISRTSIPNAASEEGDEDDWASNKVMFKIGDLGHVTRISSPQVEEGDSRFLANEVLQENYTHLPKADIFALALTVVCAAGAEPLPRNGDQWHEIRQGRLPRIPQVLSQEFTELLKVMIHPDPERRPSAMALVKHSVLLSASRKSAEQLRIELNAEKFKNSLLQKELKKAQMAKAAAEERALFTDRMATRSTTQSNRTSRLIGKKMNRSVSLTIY
Kind of assay: Wee1 time-resolved fluorescence equilibrium binding assay (displacement of Oregon Green-labeled ATP-competitive kinase probe). As to conditions: read-out: Wee-1 inhibition (Ki). The procedure:
Wee1 kinase was assayed using a time-resolved fluorescence equilibrium binding assay monitoring displacement of a rapidly reversible Oregon Green-labeled ATP-competitive kinase probe (N-(2-(2-(2-(4-(4-(5-chloro-4-(2-(1-hydroxycyclobutyl)thiazol-5-yl)-1H-pyrrolo[2,3-b]pyridin-2-yl)phenyl)piperazin-1-yl)ethoxy)ethoxy)ethyl)-2′,7′-difluoro-3′,6′-dihydroxy-3-oxo-3H-spiro[isobenzofuran-1,9′-xanthene]-5-carboxamide) by competitive Wee1 inhibitors.
Table 1 depicts enzyme inhibition data (Ki) for exemplary compounds.
As usually defined, the Ki is the dissociation constant of the complex between target and ligand, obtained from inhibition or displacement. Turning to `CN1CCN(c2ccc(Nc3ncc4c(=O)n(-c5ccccc5Cl)c5nccn5c4n3)cc2)CC1` [Example 1, 6-(2-chlorophenyl)-2-{[4-(4-methylpiperazin-1-yl)phenyl]amino}imidazo[1,2-a]pyrimido[5,4-e]pyrimidin-5(6H)-one], the Ki was under 10 nM.
The figure for `O=c1c2cnc(Nc3ccccc3)nc2n2ccnc2n1-c1ccccc1Cl` [Example 2, 2-anilino-6-(2-chlorophenyl)imidazo[1,2-a]pyrimido[5,4-e]pyrimidin-5(6H)-one] is 10 to 100 nM.
As for `O=c1c2cnc(Nc3ccncc3)nc2n2ccnc2n1-c1ccccc1Cl` [Example 3, 6-(2-chlorophenyl)-2-(pyridin-4-ylamino)imidazo[1,2-a]pyrimido[5,4-e]pyrimidin-5(6H)-one], the Ki was over 100 nM.
Turning to `CN1Cc2cc(Nc3ncc4c(=O)n(-c5ccccc5Cl)c5nccn5c4n3)ccc2C2(CC2)C1` [Example 4, 6-(2-chlorophenyl)-2-[(2′-methyl-2′,3′-dihydro-1′H-spiro[cyclopropane-1,4′-isoquinolin]-7′-yl)amino]imidazo[1,2-a]pyrimido[5,4-e]pyrimidin-5(6H)-one], the Ki is under 10 nM.
Then `O=c1c2cnc(Nc3ccc4c(c3)CCCC4)nc2n2ccnc2n1-c1ccccc1Cl` [Example 5, 6-(2-chlorophenyl)-2-(5,6,7,8-tetrahydronaphthalen-2-ylamino)imidazo[1,2-a]pyrimido[5,4-e]pyrimidin-5(6H)-one], with 10 to 100 nM; and `CN1CCN(c2cccc(Nc3ncc4c(=O)n(-c5ccccc5Cl)c5nccn5c4n3)c2)CC1` [Example 6, 6-(2-chlorophenyl)-2-{[3-(4-methylpiperazin-1-yl)phenyl]amino}imidazo[1,2-a]pyrimido[5,4-e]pyrimidin-5(6H)-one], with under 10 nM.
Then `O=c1c2cnc(Nc3ccc(C4CCCCC4)cc3)nc2n2ccnc2n1-c1ccccc1Cl` [Example 7, 6-(2-chlorophenyl)-2-[(4-cyclohexylphenyl)amino]imidazo[1,2-a]pyrimido[5,4-e]pyrimidin-5(6H)-one], with 10 to 100 nM.
The figure for `O=c1c2cnc(Nc3ccc(N4CCCCC4)cc3)nc2n2ccnc2n1-c1ccccc1Cl` [Example 8, 6-(2-chlorophenyl)-2-{[4-(piperidin-1-yl)phenyl]amino}imidazo[1,2-a]pyrimido[5,4-e]pyrimidin-5(6H)-one] is under 10 nM; for `O=c1c2cnc(Nc3ccc(CN4CCCC4)cc3)nc2n2ccnc2n1-c1ccccc1Cl` [Example 9, 6-(2-chlorophenyl)-2-{[4-(pyrrolidin-1-ylmethyl)phenyl]amino}imidazo[1,2-a]pyrimido[5,4-e]pyrimidin-5(6H)-one] it is under 10 nM; for `O=c1c2cnc(Nc3ccc(N4CCOCC4)cc3)nc2n2ccnc2n1-c1ccccc1Cl` [Example 10, 6-(2-chlorophenyl)-2-{[4-(morpholin-4-yl)phenyl]amino}imidazo[1,2-a]pyrimido[5,4-e]pyrimidin-5(6H)-one] it is under 10 nM.
With `O=c1c2cnc(Nc3cccc(CN4CCCC4)c3)nc2n2ccnc2n1-c1ccccc1Cl` [Example 11, 6-(2-chlorophenyl)-2-{[3-(pyrrolidin-1-ylmethyl)phenyl]amino}imidazo[1,2-a]pyrimido[5,4-e]pyrimidin-5(6H)-one], the Ki was 10 to 100 nM.
The figure for `CC(=O)N1CCc2ccc(Nc3ncc4c(=O)n(-c5ccccc5Cl)c5nccn5c4n3)cc21` [Example 12, 2-[(1-acetyl-2,3-dihydro-1H-indol-6-yl)amino]-6-(2-chlorophenyl)imidazo[1,2-a]pyrimido[5,4-e]pyrimidin-5(6H)-one] is under 10 nM; for `CC(=O)N1CCN(c2ccc(Nc3ncc4c(=O)n(-c5ccccc5Cl)c5nccn5c4n3)cc2)CC1` [Example 13, 2-{[4-(4-acetylpiperazin-1-yl)phenyl]amino}-6-(2-chlorophenyl)imidazo[1,2-a]pyrimido[5,4-e]pyrimidin-5(6H)-one] it is under 10 nM.
The figure for `Cc1ccccc1-n1c(=O)c2cnc(Nc3ccc(N4CCN(C)CC4)cc3)nc2n2ccnc12` [Example 14, 6-(2-methylphenyl)-2-{[4-(4-methylpiperazin-1-yl)phenyl]amino}imidazo[1,2-a]pyrimido[5,4-e]pyrimidin-5(6H)-one] is under 10 nM; for `CN1CCN(c2ccc(Nc3ncc4c(=O)n(-c5ccccc5C(F)(F)F)c5nccn5c4n3)cc2)CC1` [Example 15, 2-{[4-(4-methylpiperazin-1-yl)phenyl]amino}-6-[2-(trifluoromethyl)phenyl]imidazo[1,2-a]pyrimido[5,4-e]pyrimidin-5(6H)-one] it is 10 to 100 nM; for `COc1ccccc1-n1c(=O)c2cnc(Nc3ccc(N4CCN(C)CC4)cc3)nc2n2ccnc12` [Example 16, 6-(2-methoxyphenyl)-2-{[4-(4-methylpiperazin-1-yl)phenyl]amino}imidazo[1,2-a]pyrimido[5,4-e]pyrimidin-5(6H)-one] it is 10 to 100 nM.
Then `COc1cc(N2CCN(C)CC2)ccc1Nc1ncc2c(=O)n(-c3ccccc3Cl)c3nccn3c2n1` [Example 17, 6-(2-chlorophenyl)-2-{[2-methoxy-4-(4-methylpiperazin-1-yl)phenyl]amino}imidazo[1,2-a]pyrimido[5,4-e]pyrimidin-5(6H)-one], with over 100 nM.
On to `CN1CCCc2ccc(Nc3ncc4c(=O)n(-c5ccccc5Cl)c5nccn5c4n3)cc21` [Example 18, 6-(2-chlorophenyl)-2-[(1-methyl-1,2,3,4-tetrahydroquinolin-7-yl)amino]imidazo[1,2-a]pyrimido[5,4-e]pyrimidin-5(6H)-one], for which the Ki lay within 10 to 100 nM.
Take `O=C1COc2ccc(Nc3ncc4c(=O)n(-c5ccccc5Cl)c5nccn5c4n3)cc2N1` [Example 19, 6-(2-chlorophenyl)-2-[(3-oxo-3,4-dihydro-2H-1,4-benzoxazin-6-yl)amino]imidazo[1,2-a]pyrimido[5,4-e]pyrimidin-5(6H)-one]: the Ki lay within 10 to 100 nM.
The figure for `CC(C)(C)OC(=O)N1CCc2ccc(Nc3ncc4c(=O)n(-c5ccccc5Cl)c5nccn5c4n3)cc2C1` [Example 20, tert-butyl 7-{[6-(2-chlorophenyl)-5-oxo-5,6-dihydroimidazo[1,2-a]pyrimido[5,4-e]pyrimidin-2-yl]amino}-3,4-dihydroisoquinoline-2(1H)-carboxylate] is 10 to 100 nM; for `O=c1c2cnc(Nc3ccc4c(c3)CNCC4)nc2n2ccnc2n1-c1ccccc1Cl` [Example 21, 6-(2-chlorophenyl)-2-(1,2,3,4-tetrahydroisoquinolin-7-ylamino)imidazo[1,2-a]pyrimido[5,4-e]pyrimidin-5(6H)-one] it is under 10 nM.
In the case of `Cc1cc(Nc2ncc3c(=O)n(-c4ccccc4Cl)c4nccn4c3n2)ccc1N1CCN(C)CC1` [Example 22, 6-(2-chlorophenyl)-2-{[3-methyl-4-(4-methylpiperazin-1-yl)phenyl]amino}imidazo[1,2-a]pyrimido[5,4-e]pyrimidin-5(6H)-one], the Ki is under 10 nM.
For the molecule `C=CCn1c(=O)c2cnc(Nc3ccc(N4CCN(C)CC4)cc3)nc2n2ccnc12` [Example 23, 6-allyl-2-{[4-(4-methylpiperazin-1-yl)phenyl]amino}imidazo[1,2-a]pyrimido[5,4-e]pyrimidin-5(6H)-one], the Ki was over 100 nM.
Then `CN1CCN(c2ccc(Nc3ncc4c(=O)n(C5CCCCC5)c5nccn5c4n3)cc2)CC1` [Example 24, 6-cyclohexyl-2-{[4-(4-methylpiperazin-1-yl)phenyl]amino}imidazo[1,2-a]pyrimido[5,4-e]pyrimidin-5(6H)-one], with over 100 nM.
The figure for `Cc1cnc2n(-c3ccccc3Cl)c(=O)c3cnc(Nc4ccc(N5CCN(C)CC5)cc4)nc3n12` [Example 25, 6-(2-chlorophenyl)-9-methyl-2-{[4-(4-methylpiperazin-1-yl)phenyl]amino}imidazo[1,2-a]pyrimido[5,4-e]pyrimidin-5(6H)-one] is under 10 nM; for `CN1CCN(c2ccc(Nc3ncc4c(=O)n(-c5ccccc5Cl)c5nncn5c4n3)cc2)CC1` [Example 26, 6-(2-chlorophenyl)-2-{[4-(4-methylpiperazin-1-yl)phenyl]amino}pyrimido[5,4-e][1,2,4]triazolo[4,3-a]pyrimidin-5(6H)-one] it is 10 to 100 nM.
The figure for `Cc1nnc2n(-c3ccccc3Cl)c(=O)c3cnc(Nc4ccc(N5CCN(C)CC5)cc4)nc3n12` [Example 27, 6-(2-chlorophenyl)-9-methyl-2-{[4-(4-methylpiperazin-1-yl)phenyl]amino}pyrimido[5,4-e][1,2,4]triazolo[4,3-a]pyrimidin-5(6H)-one] is 10 to 100 nM; for `CN1CCN(c2ccc(Nc3ncc4c(=O)n(-c5ccccc5Cl)c5nnnn5c4n3)cc2)CC1` [Example 28, 4-(2-chlorophenyl)-8-{[4-(4-methylpiperazin-1-yl)phenyl]amino}pyrimido[5,4-e]tetrazolo[1,5-a]pyrimidin-5(4H)-one] it is 10 to 100 nM.
Take `CC(C)N1CCN(c2ccc(Nc3ncc4c(=O)n(-c5ccccc5Cl)c5nccn5c4n3)cc2)CC1` [Example 29, 6-(2-chlorophenyl)-2-({4-[4-(propan-2-yl)piperazin-1-yl]phenyl}amino)imidazo[1,2-a]pyrimido[5,4-e]pyrimidin-5(6H)-one]: the Ki is under 10 nM.
For `O=c1c2cnc(Nc3ccc(N4CCN(CC5CCCCC5)CC4)cc3)nc2n2ccnc2n1-c1ccccc1Cl` [Example 30, 6-(2-chlorophenyl)-2-({4-[4-(cyclohexylmethyl)piperazin-1-yl]phenyl}amino)imidazo[1,2-a]pyrimido[5,4-e]pyrimidin-5(6H)-one], the Ki was under 10 nM.
Then `N#Cc1cccc(CN2CCN(c3ccc(Nc4ncc5c(=O)n(-c6ccccc6Cl)c6nccn6c5n4)cc3)CC2)c1` [Example 31, 3-{[4-(4-{[6-(2-chlorophenyl)-5-oxo-5,6-dihydroimidazo[1,2-a]pyrimido[5,4-e]pyrimidin-2-yl]amino}phenyl)piperazin-1-yl]methyl}benzonitrile], with 10 to 100 nM.
